Source: patent US9718817B2, “Aryl and heteroaryl ether compounds as ROR gamma modulators” (Glenmark Pharmaceuticals S.A., priority 2014, dated 2017)

Biological target: T1, GST-tagged ROR gamma ligand binding domain (LBD) (Homo sapiens, UniProt P51449)
T1 construct: purchased Invitrogen
T1 sequence (P51449 269-508 limits assumed): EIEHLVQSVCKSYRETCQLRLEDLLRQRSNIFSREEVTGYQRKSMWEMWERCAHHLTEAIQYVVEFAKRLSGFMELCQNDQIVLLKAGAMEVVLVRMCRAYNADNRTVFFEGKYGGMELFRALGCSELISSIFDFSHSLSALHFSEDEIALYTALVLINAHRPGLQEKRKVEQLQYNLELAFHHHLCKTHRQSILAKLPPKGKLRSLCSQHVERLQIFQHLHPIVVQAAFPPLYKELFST
Experiment: TR-FRET assay for ROR gamma (LanthaScreen co-activator peptide recruitment)
Type: biochemical
Settings: for IC50: class symbols, from dose response curve; for inhibition at 1 µM: compound 1 μM; for inhibition at 1 µM / inhibition at 10 µM: TR-FRET ratio 520/495, percent of control; for inhibition at 10 µM: compound 10 μM
In short: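 Antagonist mode: 10 nM GST-RORγ LBD pre-incubated with compound 1 h at 22 °C in 25 mM HEPES pH 7.4, 100 mM NaCl, 5 mM DTT, 0.01% BSA, 4% DMSO final. Then 300 nM fluorescein-D22 co-activator peptide plus 10 nM Tb-anti-GST added, 1 h at room temperature. IC50 by nonlinear regression of the 520/495 TR-FRET ratio as percent of no-compound control.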

| SMILES | IC50 [nM] | inhibition at 1 µM [%] | inhibition at 10 µM [%] |
| --- | --- | --- | --- |
| CCn1c(C(C)(C)Oc2ccc(NC(=O)Cc3ccc(S(=O)(=O)CC)cc3)cc2F)nc2cc(F)ccc21 [Example 111, 2-(4-Ethanesulfonyl-phenyl)-N-{4-[1-(1-ethyl-5-fluoro-1H-benzoimidazol-2-yl)-1-methyl-ethoxy]-3-fluoro-phenyl}-acetamide] | < 50 | 88 | 86.8 |
| CCS(=O)(=O)c1ccc(CC(=O)Nc2ccc3c(c2)nc(C(C)(C)Oc2ccc(F)cc2F)n3CCN(C)C)cc1 [Example 113, N-[2-[1-(2,4-Difluoro-phenoxy)-1-methyl-ethyl]-1-(2-dimethylamino-ethyl)-1H-benzoimidazol-5-yl]-2-(4-ethanesulfonyl-phenyl)-acetamide] | – | 15.6 | 52.4 |
| CCS(=O)(=O)c1ccc(CC(=O)Nc2ccc3c(c2)nc(C(C)(C)Oc2ccc(F)cc2F)n3CC2CC2)cc1 [Example 114, N-{1-Cyclopropylmethyl-2-[1-(2,4-difluoro-phenoxy)-1-methyl-ethyl]-1H-benzoimidazol-5-yl}-2-(4-ethanesulfonyl-phenyl)-acetamide] | < 50 | 78.9 | 82.6 |
| CCCn1c(C(C)(C)Oc2ccc(F)cc2F)nc2cc(NC(=O)Cc3ccc(S(=O)(=O)CC)cc3)ccc21 [Example 115, N-{2-[1-(2,4-Difluoro-phenoxy)-1-methyl-ethyl]-1-propyl-1H-benzoimidazol-5-yl}-2-(4-ethanesulfonyl-phenyl)-acetamide] | < 50 | 82.4 | 88.3 |
| CCS(=O)(=O)c1ccc(CC(=O)Nc2ccc3c(c2)nc(C(C)(C)Oc2ccc(F)cc2F)n3CC(C)C)cc1 [Example 116, N-{2-[1-(2,4-Difluoro-phenoxy)-1-methyl-ethyl]-1-isobutyl-1H-benzoimidazol-5-yl}-2-(4-ethanesulfonyl-phenyl)-acetamide] | > 100 | 79.1 | 84.5 |
| CCS(=O)(=O)c1ccc(CC(=O)Nc2ccc3c(c2)nc(C(C)(C)Oc2ccc(F)cc2F)n3C(C)C)cc1 [Example 117, N-{2-[1-(2,4-Difluoro-phenoxy)-1-methyl-ethyl]-1-isopropyl-1H-benzoimidazol-5-yl}-2-(4-ethanesulfonyl-phenyl)-acetamide] | > 100 | 82.7 | 86.7 |
| CCn1c(C(F)(F)Oc2ccc(F)cc2F)nc2cc(NC(=O)Cc3ccc(S(=O)(=O)CC)cc3)ccc21 [Example 118, N-{2-[(2,4-Difluoro-phenoxy)-difluoromethyl]-1-ethyl-1H-benzoimidazol-5-yl}-2-(4-ethanesulfonyl-phenyl)-acetamide] | – | 5.43 | 9.14 |
| CCS(=O)(=O)c1ccc(CC(=O)Nc2ccc(OC3(c4ccc(Cl)c(F)c4)CCC3)c(F)c2)cc1 [Example 119, N-{4-[1-(4-Chloro-3-fluorophenyl)-cyclobutoxy]-3-fluoro-phenyl}-2-(4-ethanesulfonyl-phenyl)-acetamide] | < 50 | 84.9 | 84.5 |
| CCS(=O)(=O)c1ccc(CC(=O)Nc2ccc(OC3(c4ccc(Cl)c(F)c4)CCCC3)cc2)cc1 [Example 120, N-{4-[1-(4-Chloro-3-fluorophenyl)-cyclopentyloxy]-phenyl}-2-(4-ethanesulfonyl-phenyl)-acetamide] | < 50 | 84.8 | 89.6 |
| CCS(=O)(=O)c1ccc(CC(=O)Nc2ccc(OC3(c4ccc(Cl)c(F)c4)CCCC3)c(F)c2)cc1 [Example 121, N-{4-[1-(4-Chloro-3-fluorophenyl)-cyclopentyloxy]-3-fluorophenyl}-2-(4-ethanesulfonyl-phenyl)-acetamide] | < 50 | 86.8 | 90.2 |
| CCS(=O)(=O)c1ccc(CC(=O)Nc2ccc(OC3(c4ccc(Cl)c(F)c4)CCCCC3)c(F)c2)cc1 [Example 122, N-{4-[1-(4-Chloro-3-fluorophenyl)-cyclohexyloxy]-3-fluorophenyl}-2-(4-ethanesulfonyl-phenyl)-acetamide] | < 50 | 77.3 | 81.2 |
| CCS(=O)(=O)c1ccc(CC(=O)Nc2ccc(OC3(c4ccc(Cl)cc4Cl)CCCC3)cc2)cc1 [Example 123, N-{4-[1-(2,4-Dichlorophenyl)-cyclopentyloxy]-phenyl}-2-(4-ethanesulfonyl-phenyl)-acetamide] | < 50 | 82 | 87.2 |
| CCS(=O)(=O)c1ccc(CC(=O)Nc2ccc(OC3(c4ccc(Cl)c(F)c4)CCCCC3)cc2)cc1 [Example 124, N-{4-[1-(4-Chloro-3-fluorophenyl)-cyclohexyloxy]-phenyl}-2-(4-ethanesulfonyl-phenyl)-acetamide] | < 50 | 82.2 | 84.8 |
| CCS(=O)(=O)c1ccc(CC(=O)Nc2ccc3c(c2)nc(C(C)(C)Oc2ccc(F)cc2F)n3C2CC2)cc1 [Example 125, N-{1-Cyclopropyl-2-[1-(2,4-difluorophenoxy)-1-methylethyl]-1H-benzoimidazol-5-yl}-2-(4-ethanesulfonyl-phenyl)-acetamide] | < 50 | 89.2 | 90.4 |
| CCn1c(C(C)(C)Oc2cc(F)ccc2F)nc2cc(NC(=O)Cc3ccc(S(=O)(=O)CC)cc3)ccc21 [Example 126, N-{2-[1-(2,5-Difluorophenoxy)-1-methylethyl]-1-ethyl-1H-benzoimidazol-5-yl}-2-(4-ethanesulfonylphenyl)-acetamide] | < 50 | 85.9 | 89.5 |
| CCN(C(=O)C(C)(C)Oc1ccc(NC(=O)Cc2ccc(S(=O)(=O)CC)cc2)cc1)c1ccc(Cl)cc1 [Example 127, N-(4-Chlorophenyl)-2-{4-[2-(4-ethanesulfonylphenyl)acetylamino]-phenoxy}-N-ethyl-2-methylpropionamide] | – | 68 | 75.8 |
| CCS(=O)(=O)c1ccc(CC(=O)Nc2ccc(OC(C)(C)C(=O)N(C)c3ccc(Cl)cc3)cc2)cc1 [Example 128, N-(4-Chlorophenyl)-2-{4-[2-(4-ethanesulfonylphenyl)acetylamino]-phenoxy}-2-N-dimethylpropionamide] | – | 64.2 | 79.8 |
| CCN(C(=O)C(C)(C)Oc1ccc(NC(=O)Cc2ccc(S(=O)(=O)CC)cc2)cc1)c1ccc(Cl)cc1Cl [Example 129, N-(2,4-Dichlorophenyl)-N-ethyl-2-(4-(2-(4-(ethylsulfonyl)phenyl)acetamido)phenoxy)-2-methylpropanamide] | – | 2.49 | 8.35 |
| CCN(C(=O)C(C)(C)Oc1ccc(NC(=O)Cc2ccc(S(=O)(=O)CC)cc2)cc1)c1ccc(Cl)c(F)c1 [Example 130, N-(4-Chloro-3-fluorophenyl)-N-ethyl-2-(4-(2-(4-(ethylsulfonyl)phenyl)acetamido)phenoxy)-2-methylpropanamide] | > 100 | 73 | 85.2 |
| CCN(C(=O)C(C)(C)Oc1ccc(NC(=O)Cc2ccc(S(=O)(=O)CC)cc2)cc1F)c1ccc(Cl)c(F)c1 [Example 131, N-(4-Chloro-3-fluorophenyl)-N-ethyl-2-(4-(2-(4-(ethylsulfonyl)phenyl)acetamido)-2-fluorophenoxy)-2-methylpropanamide] | 50 to 100 | 69.8 | 72.9 |
| CCN(C(=O)C(C)(C)Oc1ccc(F)cc1F)c1ccc(NC(=O)Cc2ccc(S(=O)(=O)CC)cc2)cc1 [Example 132, 2-(2,4-Difluorophenoxy)-N-ethyl-N-(4-(2-(4-(ethylsulfonyl)phenyl)acetamido)phenyl)-2-methylpropanamide] | – | 52.9 | 60.9 |
| CCS(=O)(=O)c1ccc(CC(=O)Nc2ccc(OC3(c4ccc(Cl)cc4Cl)CCCCC3)cc2)cc1 [Example 134, N-(4-((1-(2,4-Dichlorophenyl)cyclohexyl)oxy)phenyl)-2-(4-(ethylsulfonyl)phenyl)acetamide] | < 50 | 77.3 | 81.1 |
| CCS(=O)(=O)c1ccc(CC(=O)Nc2ccc(OC3(c4ccc(Cl)cc4Cl)CCCCC3)c(F)c2)cc1 [Example 135, N-(4-((1-(2,4-Dichlorophenyl)cyclohexyl)oxy)-3-fluorophenyl)-2-(4-(ethylsulfonyl)phenyl)acetamide] | 50 to 100 | 73.2 | 77 |
| CCS(=O)(=O)c1ccc(CC(=O)Nc2ccc(OC3(c4ccc(Cl)cc4Cl)CCOCC3)c(F)c2)cc1 [Example 136, N-(4-((4-(2,4-Dichlorophenyl)tetrahydro-2H-pyran-4-yl)oxy)-3-fluorophenyl)-2-(4-(ethylsulfonyl)phenyl)acetamide] | < 50 | 71.6 | 79.3 |
| CCS(=O)(=O)c1ccc(CC(=O)Nc2ccc(OC3(c4ccc(Cl)cc4Cl)CCCC3)c(F)c2)cc1 [Example 137, N-(4-((1-(2,4-Dichlorophenyl)cyclopentyl)oxy)-3-fluorophenyl)-2-(4-(ethylsulfonyl)phenyl)acetamide] | < 50 | 80 | 86.5 |
